Results: PMC12391121, “Identification and validation of the VEGF/p38MAPK/HSP27 pro-tumor inflammatory pathway: screening of active components from Patrinia villosa and evaluation of their drug-likeness” (Frontiers in Immunology, 2025)

Experiments:
HSP27 = target: T1, HSP27 (Homo sapiens, UniProt P04792); assay: microscale thermophoresis; type: binding
T1 construct: gene HSPB1; commercial recombinant human protein; labelled with Monolith RED-NHS
Text: microscale thermophoresis on HSP27

p38MAPK = target: T2, p38MAPK (Homo sapiens, UniProt Q16539); assay: microscale thermophoresis; type: binding
T2 construct: gene MAPK14; commercial recombinant human protein; labelled with Monolith RED-NHS
T2 sequence (Q16539 2-360): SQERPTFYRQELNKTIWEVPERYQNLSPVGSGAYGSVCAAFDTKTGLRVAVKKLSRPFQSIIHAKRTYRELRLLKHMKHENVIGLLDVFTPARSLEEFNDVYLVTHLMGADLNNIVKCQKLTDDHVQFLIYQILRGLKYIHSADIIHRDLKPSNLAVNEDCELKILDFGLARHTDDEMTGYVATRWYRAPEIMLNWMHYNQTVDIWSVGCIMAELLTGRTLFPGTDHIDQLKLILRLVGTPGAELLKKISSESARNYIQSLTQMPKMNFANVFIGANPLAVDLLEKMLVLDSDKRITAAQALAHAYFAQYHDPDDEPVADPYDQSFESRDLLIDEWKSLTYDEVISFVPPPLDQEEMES

T1 sequence (P04792 whole entry): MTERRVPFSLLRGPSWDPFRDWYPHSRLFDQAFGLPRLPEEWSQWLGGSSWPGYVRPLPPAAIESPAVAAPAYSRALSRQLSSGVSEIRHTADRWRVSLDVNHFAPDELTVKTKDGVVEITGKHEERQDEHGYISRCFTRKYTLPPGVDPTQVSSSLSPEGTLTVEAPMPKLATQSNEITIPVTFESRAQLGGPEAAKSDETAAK

| Kd (HSP27) | Kd (p38MAPK) | SMILES |
| --- | --- | --- |
| 3.64 µM | 1.71 µM | O=C(/C=C/c1ccc(O)c(O)c1)O[C@@H]1[C@H](O)C[C@@](O)(C(=O)O)C[C@H]1OC(=O)/C=C/c1ccc(O)c(O)c1 [4,5-Dicqa] |
| 0.915 µM |  | C[S+]([O-])c1ccc(-c2nc(-c3ccncc3)c(-c3ccc(F)cc3)[nH]2)cc1 (stereo not shown) [SB203580] |
| 4.47 µM | 1.4 µM | C[C@@H]1O[C@@H](OC[C@H]2O[C@@H](Oc3c(-c4ccc(O)cc4)oc4cc(O)cc(O)c4c3=O)[C@H](O)[C@@H](O)[C@@H]2O)[C@H](O)[C@H](O)[C@H]1O [Nicotiflorin] |
| 3.76 µM | 1.27 µM | C[C@@H]1O[C@@H](OC[C@H]2O[C@@H](Oc3c(-c4ccc(O)c(O)c4)oc4cc(O)cc(O)c4c3=O)[C@H](O)[C@@H](O)[C@@H]2O)[C@H](O)[C@H](O)[C@H]1O [Rutin] |
